Results from patent US11584765B2 (priority 2017, dated 2023).

System: C57BL/6 mice
Experiment: animal or person
Assay type: in vivo
Conditions: Mus musculus, sc, 0.5 h, s.c. administration, 30 min, 55° C. water, read-out: ED50 (mg/kg) at 30 min on C57BL/6 mice in Warm-water Tail-flick Test

Row | Compound | ED50 [mg/kg]
1 | CCOC[C@@]1(CCc2ccsc2)CCN(C(C)c2cccnc2)C1 (stereo partly drawn) [Compound 387, 3-(1-((S)-3-(ethoxymethyl)-3-(2-(thiophen-3-yl)ethyl)pyrrolidin-1-yl)ethyl)pyridine] | < 10
2 | CC(C)OC[C@@]1(CCc2cccs2)CCN(Cc2cccnc2)C1 [Compound 388, (S)-3-((3-(isopropoxy-methyl)-3-(2-(thiophen-2-yl)ethyl)pyrrolidin-1-yl)methyl)pyridine] | < 10
3 | COC[C@@]1(CCc2cccs2)CCN(Cc2cccnc2)C1 [Compound 389, (S)-3-((3-(methoxymethyl)-3-(2-(thiophen-2-yl)ethyl)pyrrolidin-1-yl)methyl)pyridine] | < 10
4 | c1ccc(C2(CCc3cccs3)CCN(Cc3cccnc3)C2)nc1 (stereo not drawn) [Compound 390, 2-(1-(pyridin-3-ylmethyl)-3-(2-(thiophen-2-yl)ethyl)pyrrolidin-3-yl)pyridine] | > 10
5 | Cc1ccc(CN2CC[C@@](CCc3ccsc3)(C3CCCO3)C2)cn1.Cl (stereo partly drawn) [Compound 391, 2-methyl-5-(((3R)-3-(tetrahydrofuran-2-yl)-3-(2-(thiophen-3-yl)ethyl)pyrrolidin-1-yl)methyl)pyridine HCl] | < 10
6 | FC(F)OC[C@@]1(CCc2cccs2)CCN(Cc2cccnc2)C1 [Compound 392, (S)-3-((3-((difluorometh-oxy)methyl)-3-(2-(thiophen-2-yl)ethyl)pyrrolidin-1-yl)methyl)pyridine] | < 10
7 | CCOC1(CCc2cccs2)CCN(Cc2cccnc2)C1 (stereo not drawn) [Compound 393, 3-((3-ethoxy-3-(2-(thiophen-2-yl)ethyl)pyrrolidin-1-yl)methyl)pyridine] | > 10
8 | CCOCC1(CCc2cccs2)CN(Cc2cccnc2)C1 [Compound 394, 3-((3-(ethoxymethyl)-3-(2-(thiophen-2-yl)ethyl)azetidin-1-yl)methyl)pyridine] | > 10
9 | CCOC[C@@]1(CCc2cccs2)CCN(C2(c3cccnc3)CC2)C1 [Compound 395, (S)-3-(1-(3-(ethoxymethyl)-3-(2-(thiophen-2-yl)ethyl)pyrrolidin-1-yl)cyclopropyl)pyridine] | < 10
10 | CC(C)(c1cccnc1)N1CCC(CCc2cccs2)(c2ccccn2)CC1 [Compound 396, 2-(1-(2-(pyridin-3-yl)propan-2-yl)-4-(2-(thiophen-2-yl)ethyl)piperidin-4-yl)pyridine] | < 10
11 | Cc1ccc(CN2C3CCC2CC(CCc2cccs2)(c2ccccn2)C3)cn1 (stereo not drawn) [Compound 397, 8-((6-methylpyridin-3-yl)methyl)-3-(pyridin-2-yl)-3-(2-(thiophen-2-yl)ethyl)-8-azabicyclo[3.2.1]octane] | > 10
12 | CCOC[C@@]1(CCc2ccc(F)cn2)CCN(C2(c3cnc4c(c3)CCCC4)CC2)C1 [Compound 398, (S)-3-(1-(3-(ethoxymethyl)-3-(2-(5-fluoropyridin-2-yl)ethyl)pyrrolidin-1-yl)cyclopropyl)-5,6,7,8-tetrahydroquinoline] | < 10
13 | CCOCC1(CCc2ccccc2)CCN(C(CC)(CC)c2ccc(C)nc2)CC1 [Compound 399, 5-(3-(4-(ethoxymethyl)-4-phenethylpiperidin-1-yl)pentan-3-yl)-2-methylpyridine] | > 10
14 | CCOCC1(CCc2ccccc2)CCN(C(CC)c2cnc(C)cc2CC)CC1 (stereo not drawn) [Compound 400, 5-(1-(4-(ethoxymethyl)-4-phenethylpiperidin-1-yl)propyl)-4-ethyl-2-methylpyridine] | < 10
15 | CCOC(C)(C)[C@@]1(CCc2cccs2)CCN(C(C)(C)c2ccc(C)nc2)C1 [Compound 402, (S)-5-(2-(3-(2-ethoxypropan-2-yl)-3-(2-(thiophen-2-yl)ethyl)pyrrolidin-1-yl)propan-2-yl)-2-methylpyridine] | < 10
16 | CCOC(C)(C)[C@@]1(CCc2cccs2)CCN(C(C)c2ccc(C)nc2C)C1 (stereo partly drawn) [Compound 403, 3-(1-((S)-3-(2-ethoxypropan-2-yl)-3-(2-(thiophen-2-yl)ethyl)pyrrolidin-1-yl)ethyl)-2,6-dimethylpyridine] | < 10
17 | CCOC[C@@]1(CCc2cccs2)CCN(Cc2c(C)ccnc2C)C1 [Compound 404, (S)-3-((3-(ethoxymethyl)-3-(2-(thiophen-2-yl)ethyl)pyrrolidin-1-yl)methyl)-2,4-dimethylpyridine] | < 10
18 | CCOC[C@@]1(CCc2cccs2)CCN(Cc2cccnn2)C1 [Compound 405, (S)-3-((3-(ethoxymethyl)-3-(2-(thiophen-2-yl)ethyl)pyrrolidin-1-yl)methyl)pyridazine] | > 10
19 | CCOC[C@@]1(CCc2cccnn2)CCN(Cc2cccnc2)C1 [Compound 406, (S)-3-(2-(3-(ethoxymethyl)-1-(pyridin-3-ylmethyl)pyrrolidin-3-yl)ethyl)pyridazine] | > 10
20 | CCOC[C@@]1(CCc2ccc(C)s2)CCN(Cc2cnn(C)c2)C1 [Compound 407, (S)-4-((3-(ethoxymethyl)-3-(2-(5-methylthiophen-2-yl)ethyl)pyrrolidin-1-yl)methyl)-1-methyl-1H-pyrazole] | < 10
21 | CCOC[C@@]1(CCc2ccc(C)s2)CCN(Cc2ccc(C)nc2)C1 [Compound 408, (S)-5-((3-(ethoxymethyl)-3-(2-(5-methylthiophen-2-yl)ethyl)pyrrolidin-1-yl)methyl)-2-methylpyridine] | < 10

Row | Compound | ED50 [mg/kg]
22 | CCOC[C@@]1(CCc2ccc(C)s2)CCN(Cc2ccc(C)nc2C)C1 [Compound 409, (S)-3-((3-(ethoxymethyl)-3-(2-(5-methylthiophen-2-yl)ethyl)pyrrolidin-1-yl)methyl)-2,6-dimethylpyridine] | < 10
23 | c1ccc(C2(CCc3cccs3)CCN(Cc3cccnc3)CC2)nc1 [Compound 410, 2-(1-(pyridin-3-ylmethyl)-4-(2-(thiophen-2-yl)ethyl)piperidin-4-yl)pyridine] | < 10
24 | Cc1ccc(C(C)(C)N2CC[C@@](CO)(CCc3cccs3)C2)cn1 [Compound 411, (S)-(1-(2-(6-methylpyridin-3-yl)propan-2-yl)-3-(2-(thiophen-2-yl)ethyl)pyrrolidin-3-yl)methanol] | < 10
25 | OC[C@@]1(CCc2cccs2)CCN(Cc2cccnc2)C1 [Compound 412, (S)-(1-(pyridin-3-ylmethyl)-3-(2-(thiophen-2-yl)ethyl)pyrrolidin-3-yl)methanol] | < 10
26 | Cc1ccc(CN2CC[C@@](CO)(CCc3cccs3)C2)cn1 [Compound 413, (S)-(1-((6-methylpyridin-3-yl)methyl)-3-(2-(thiophen-2-yl)ethyl)pyrrolidin-3-yl)methanol] | < 10
27 | CC(c1cccnc1)N1CC[C@@](CO)(CCc2cccs2)C1 (stereo partly drawn) [Compound 414, ((3S)-1-(1-(pyridin-3-yl)ethyl)-3-(2-(thiophen-2-yl)ethyl)pyrrolidin-3-yl)methanol] | < 10
28 | CC(C)(c1cccnc1)N1CC[C@@](CO)(CCc2cccs2)C1 [Compound 415] | < 10
29 | CCOC[C@@]1(CCc2cccs2)CCN(Cc2c(C)cc(C)nc2C)C1 [Compound 416, (S)-3-((3-(ethoxymethyl)-3-(2-(thiophen-2-yl)ethyl)pyrrolidin-1-yl)methyl)-2,4,6-trimethylpyridine] | < 10
30 | Cn1cc(CN2CCC(CCc3ccccc3)(c3ccccn3)CC2)cn1 [Compound 417, 2-(1-((1-methyl-1H-pyrazol-4-yl)methyl)-4-phenethylpiperidin-4-yl)pyridine] | < 10
31 | Cc1ccc(CN2[C@@H](C)CC(CCc3ccc(F)cc3)(c3ccccn3)C[C@@H]2C)cn1 (stereo partly drawn) [Compound 418, 5-(((2S,6S)-4-(4-fluorophenethyl)-2,6-dimethyl-4-(pyridin-2-yl)piperidin-1-yl)methyl)-2-methylpyridine] | > 10
32 | CCOC[C@@]1(COc2ccccc2)CCN(Cc2ccc(C)nc2)C1 [Compound 419, (R)-5-((3-(ethoxymethyl)-3-(phenoxy-methyl)pyrrolidin-1-yl)methyl)-2-methylpyridine] | < 10
33 | CCOC[C@@]1(CCc2ccccn2)CCN(Cc2cccnc2)C1 [Compound 420] | < 10
34 | CCOC[C@@]1(CN(C)c2ccccc2)CCN(Cc2ccc(C)nc2)C1 [Compound 421, (S)-N-((3-(ethoxymethyl)-1-((6-methylpyridin-3-yl)methyl)pyrrolidin-3-yl)methyl)-N-methylaniline] | < 10
35 | CCOC[C@@]1(COc2ccc(F)cc2)CCN(Cc2ccc(C)nc2)C1 [Compound 426, (R)-5-((3-(ethoxymethyl)-3-((4-fluoro-phenoxy)methyl)pyrrolidin-1-yl)methyl)-2-methylpyridine] | < 10
36 | CCOCC1(CCC2CC2)CCN(Cc2ccc(C)nc2)C1 (stereo not drawn) [Compound 427, 5-((3-(2-cyclopropylethyl)-3-(ethoxy-methyl)pyrrolidin-1-yl)methyl)-2-methylpyridine] | < 10
37 | CCOC[C@@]1(CCc2cccs2)CCN(Cc2cccnc2C)C1 [Compound 428, (S)-3-((3-(ethoxymethyl)-3-(2-(thiophen-2-yl)ethyl)pyrrolidin-1-yl)methyl)-2-methylpyridine] | < 10
38 | CCOCC1(CCc2cccs2)CN(Cc2ccc(C)nc2)C1 [Compound 429, 5-((3-(ethoxymethyl)-3-(2-(thiophen-2-yl)ethyl)azetidin-1-yl)methyl)-2-methylpyridine] | < 10
39 | CCOC[C@@]1(CCc2cccs2)CCN(Cc2cnn(C)c2)C1.Cl [Compound 430, (S)-4-((3-(ethoxymethyl)-3-(2-(thiophen-2-yl)ethyl)pyrrolidin-1-yl)methyl)-1-methyl-1H-pyrazole HCl] | < 10
40 | CCOCC1(CCC2CC2)CCN(C(C)(C)c2ccc(C)nc2)C1 (stereo not drawn) [Compound 431, 5-(2-(3-(2-cyclopropylethyl)-3-(ethoxy-methyl)pyrrolidin-1-yl)propan-2-yl)-2-methylpyridine] | < 10
41 | Cc1ccc(CN2CCC(CCc3ccccc3)(c3ccccn3)CC2)cn1 [Compound 432, 2-methyl-5-((4-phenethyl-4-(pyridin-2-yl)piperidin-1-yl)methyl)pyridine] | < 10
42 | CC(C)(c1cccnc1)N1CCC(CCc2ccccc2)(c2ccccn2)CC1 [Compound 433, 2-(4-phenethyl-1-(2-(pyridin-3-yl)propan-2-yl)piperidin-4-yl)pyridine] | < 10
